Test results as given in patent US20170119907A1, “Targeted Therapeutics” (MEDIVATION TECHNOLOGIES, INC., priority 2014, published 2017).

Columns and labels:
[1] = system: partial thickness chondral defects in the medial femoral condyle; assay: Chondral defect model, retention of Compound 4-augmented MSCs (histological cell retention score); format: in vivo, sheep; settings: for Cell Retention (average score, n = 5): score 0-2
Description: The capacity of ovine MSCs derived from bone marrow and augmented with Compound 4 to bind to lesions in cartilage in vivo was evaluated in a chondral defect model.
Bone marrow aspirate was collected from fifteen healthy nave female sheep and processed in vitro to attain a population of mesenchymal stem cells (MSCs) for each sheep created by expansion of adherent cells. MSCs were frozen at passage 1 (P1).
Two circular partial thickness chondral defects were surgically created bilaterally in the medial femoral condyle of each sheep, thereby creating four defects per sheep. Once the medial femoral condyle was surgically exposed, two partial thickness circular defects were created in the cartilage of the anterior aspect, separated by 2-3 mm. Each defect was created by penetrating the cartilage with a 7 mm diameter biopsy punch to delineate the margins followed by removal of cartilage within the defect margin with a scalpel to a depth of approximately 0.5 mm-0.8 mm without penetrating the surface of the calcified cartilage. Within the same animal, each defect received one of four experimental treatments: • a. D1: Empty Control: defect left unfilled; • b. D2: Vehicle Control: cells incubated in PBS delivered to the defect; • c. D3: 100 μM Compound 4 incubated in defect followed by delivery of cells to the defect; and • d. D4: Cells were incubated with 10 μM Compound 4 for 30 min and together they were delivered to defect.
Sheep were divided into three groups of 5 sheep. One group was sacrificed on day 1 after surgery, the second group was sacrificed on day 7, and the third group was sacrificed on day 14 after surgery.
The complete intact joint was harvested and transported to the laboratory. The joint was exposed, and defects were scored macroscopically prior to separating out bone blocks containing the defects with a band saw. Defects were further trimmed and individually separated using a fine ISOMET® saw prior to fixation in 10% neutral buffered formalin. Tissue was further trimmed for histological processing, fixed, and decalcified for at least one week.
As each sample completed decalcification, it was transferred to 40% EtOH until all samples were decalcified and the last sample had been in 40% EtOH for at least 24 hours.
Following decalcification, specimens were prepared for histology staining with safranin-orange, fast green and haematoxylin-eosin.
Histological Assessment of Compound 4-Augmented Cell Retention
Histological slides were stained with Haematoxylin & Eosin and Safranin Orange for evaluation of cell retention and the early stages of cartilage repair. Cell retention was assessed using the following scoring system: […]

human MSCs [2] = assay: Viability and proliferation of human MSCs in the presence of compound (Example B2); format: cell-based; settings: concentrations of 20 μM or below
human MSCs [3] = assay: Human MSC viability, trypan blue staining; format: cell-based; settings: 30 min, concentrations 20 μM or lower, FIG. 3B
Description: Cell viability was measured by using trypan blue to stain dead cells. Cells (2×10^5) were incubated with various concentrations of Compound 4 for 30 min, and viable cells were counted and compared to the number of viable cells in an untreated sample. Values for treated cells were normalized to untreated cells.

[4] = system: articular cartilage degeneration (MIA model); assay: Monosodium iodoacetate (MIA) model of articular cartilage degeneration, compound-incubated hMSCs; format: in vivo, Sprague Dawley rats; settings: rat MIA 3 mg intra-articular; 4×10^5 hMSCs incubated in 10 μM compound injected day 7; evaluated day 28; FIG. 7
Description: 6 to 8 week old Sprague Dawley rats were anesthetized with 3% sevofluorane and injected in both the right and left knee intra-articularly with MIA (monosodium iodoacetate, Sigma Cat No I2512) at a dose of 3 mg in a volume of 50 pt. MIA was dissolved in sterile saline (0.9%). hMSCs (Lonza, Cat No PT-2501) were cultured in complete MSCCM™ mesenchymal stem cell culture medium (Lonza, Cat No PT-3238).
Seven days after the injection of MIA, 2-10 million hMSCs were collected and incubated for 20 min in 500 μL of 10 μM Compound 20 in PBS or in PBS alone (untreated). Cells were washed with PBS and counted.
Rats were again anesthetized with 3% sevofluorane. 4×10^5 hMSCs incubated in PBS or in Compound 20 were injected intraarticularly through the patellar ligament. Untreated hMSC were injected into the left knee joint, and Compound 20-stained hMSCs were injected into the right knee joint.
Twenty eight days after the injection of MIA, rats were euthanized, and femoral condyles were extracted for macroscopic evaluation.

Structure (SMILES) | Cell Retention (average score, n = 5) ([1]; D3: 100 μM incubated in defect followed by delivery of cells, Day 1) | Cell Retention (average score, n = 5) ([1]; D3: 100 μM incubated in defect followed by delivery of cells, Day 7) | Cell Retention (average score, n = 5) ([1]; D3: 100 μM incubated in defect followed by delivery of cells, Day 14) | Cell Retention (average score, n = 5) ([1]; D4: cells pre-incubated with 10 μM for 30 min, then delivered to defect, Day 1) | Cell Retention (average score, n = 5) ([1]; D4: cells pre-incubated with 10 μM for 30 min, then delivered to defect, Day 7) | Cell Retention (average score, n = 5) ([1]; D4: cells pre-incubated with 10 μM for 30 min, then delivered to defect, Day 14) | MSC retention (in words) ([1]; sheep chondral defect model, summary of Table B9) | proliferation of human MSCs (human MSCs [2]; FIG. 3A) | viability of human MSCs relative to untreated human MSCs (human MSCs [2]; FIG. 3B) | Effect on viability of human MSCs (human MSCs [3]) | Macroscopic evaluation of femoral condyle cartilage [4]
Cc1cc2nc3cc(C)c(NCCCCCCCCNc4cc5c(cc4C)nc4cc(C)c(N)cc4[n+]5-c4ccccc4)cc3[n+](-c3ccccc3)c2cc1N.[Cl-].[Cl-] [Compound 4, 7,7′-(octane-1,8-diylbis(azanediyl))bis(3-amino-2,8-dimethyl-5-phenylphenazin-5-ium) chloride] | 0.75 | 0.75 | 1.2 | 0.4 | 1.0 | 1.25 | promotes MSC retention | do not affect | do not affect | did not affect the viability | –
Cc1cc2nc3cc(C)c(NCCCCCCNC(=O)c4ccc(-c5ccc(C(=O)NCCCCCCNc6cc7c(cc6C)nc6cc(C)c(N)cc6[n+]7-c6ccccc6)cc5)cc4)cc3[n+](-c3ccccc3)c2cc1N.[Cl-].[Cl-] [Compound 20, (3-amino-7-{[6-({4-[4-({6-[(7-amino-5-chloranuide-2,8-dimethyl-5-phenyl-5λ^6,10-phenazin-5-ylium-3-yl)amino]hexyl}carbamoyl)phenyl]phenyl}formamido)hexyl]amino}-2,8-dimethyl-5-phenyl-5λ^6,10-phenazin-5-ylium-5-e)chloranuide] | – | – | – | – | – | – | – | – | – | – | an improvement in the cartilage and surrounding bone area
